Activity calls are given as the source filed them. The rule behind the calls is not given here.
Test system: Clostridioides difficile clinical isolate growth, OD600, 24 h
Assay: C. difficile growth inhibition, confirmation, 4-point retest (AID 1224921)

Compound	AC50
O=C(C[C@@H]1CC[C@@H]2[C@H](COC[C@@H](O)CN2C(=O)Nc2ccc(C(F)(F)F)cc2)O1)NCC1CCCCC1	2.03 µM
O=C(C[C@@H]1CC[C@H]2[C@@H](COC[C@@H](O)CN2C(=O)Nc2ccc(Cl)c(Cl)c2)O1)NCc1ccc(F)cc1	1.92 µM
O=C(C[C@H]1CC[C@H]2[C@@H](COC[C@@H](O)CN2C(=O)Nc2cc(Cl)cc(Cl)c2)O1)NCC1CC1	10.9 µM
CO[C@H]1CN(C)C(=O)c2cc(NC(=O)Nc3ccc(Cl)c(Cl)c3)ccc2OC[C@H](C)NC[C@H]1C	9.51 µM
C[C@@H]1CN([C@@H](C)CO)C(=O)c2cc(NS(=O)(=O)c3cn(C)cn3)ccc2O[C@@H](C)CCCCO[C@@H]1CN(C)C(=O)Nc1ccc(C(F)(F)F)cc1	5.78 µM
O=C(C[C@@H]1CC[C@H]2[C@@H](COC[C@@H](O)CN2C(=O)Nc2cc(Cl)cc(Cl)c2)O1)N1CCOCC1	10.7 µM
O=C(C[C@H]1CC[C@@H]2[C@H](COC[C@@H](O)CN2C(=O)Nc2ccc(Cl)c(Cl)c2)O1)NCc1ccccc1	4.01 µM
C[C@@H]1CCCCO[C@@H](CN(C)CC2CCCCC2)[C@H](C)CN([C@@H](C)CO)C(=O)c2cc(NC(=O)Nc3ccc(C(F)(F)F)cc3)ccc2O1	12.6 µM
C[C@H](CO)N1C[C@H](C)[C@@H](CN(C)CC2CCCC2)Oc2ncc(C#CCc3ccccc3)cc2C1=O	> 60 µM (inactive)
CCC(=O)N[C@H]1CC[C@H](CCNC(=O)Nc2ccc(C(F)(F)F)cc2)O[C@H]1CO	16.5 µM
CNC[C@@H]1OCCCC[C@@H](C)Oc2ccc(NC(=O)Nc3ccc(C(F)(F)F)cc3)cc2C(=O)N([C@@H](C)CO)C[C@@H]1C	17.5 µM
O=C(C[C@H]1CC[C@H]2[C@@H](COC[C@H](O)CN2C(=O)Nc2ccc(C(F)(F)F)cc2)O1)NCCc1ccncc1	2.37 µM
O=C(N[C@H]1CC[C@H](CCNS(=O)(=O)c2ccc(Cl)cc2)O[C@H]1CO)c1ccccn1	> 60 µM (inactive)
COc1ccc(C(=O)Nc2ccc3c(c2)OC[C@@H](C)N(C(C)=O)C[C@H](C)[C@@H](OC)CN(C)C3=O)cc1	> 60 µM (inactive)
CCC(=O)N[C@@H]1CC[C@H](CCNC(=O)Nc2ccc(C(F)(F)F)cc2)O[C@H]1CO	7.27 µM
C[C@H](CO)N1C[C@H](C)[C@H](CN(C)C(=O)Nc2ccc(C(F)(F)F)cc2)Oc2c(NC(=O)Nc3ccccc3)cccc2C1=O	> 60 µM (inactive)
O=C(C[C@@H]1CC[C@@H]2[C@H](COC[C@H](O)CN2C(=O)Nc2cc(Cl)cc(Cl)c2)O1)N1CCOCC1	6.6 µM
C=C1CC(c2ccc(-c3ccccc3)cc2)OC1=O (stereo not given)	13.7 µM
O=C(C[C@H]1CC[C@@H]2[C@H](COC[C@H](O)CN2C(=O)Nc2ccc(Cl)c(Cl)c2)O1)NCc1ccc(Cl)cc1	1.88 µM
CCC(=O)N[C@H]1CC[C@@H](CCNC(=O)Nc2ccc(C(F)(F)F)cc2)O[C@H]1CO	2.41 µM

Compound	AC50
CO[C@@H]1CN(C)C(=O)c2cc(NC(=O)Nc3cc(Cl)cc(Cl)c3)ccc2OC[C@H](C)NC[C@H]1C	5.04 µM
COc1ccccc1C#Cc1ccc([C@H]2[C@@H](CO)N(C(=O)C3CCCCC3)[C@H]2C#N)cc1	34.2 µM
O=C(C[C@@H]1CC[C@@H]2[C@H](COC[C@@H](O)CN2C(=O)Nc2ccc(Cl)c(Cl)c2)O1)NCc1ccncc1	4.07 µM
C[C@@H]1CCCCO[C@@H](CN(C)Cc2ccc3c(c2)OCO3)[C@H](C)CN([C@@H](C)CO)C(=O)c2cc(NC(=O)Nc3ccc(C(F)(F)F)cc3)ccc2O1	> 60 µM (inactive)
CO[C@@H]1CN(C)C(=O)c2ccc(NC(=O)Nc3cc(Cl)cc(Cl)c3)cc2OC[C@H](C)NC[C@H]1C	7.81 µM
CN(C)CC(=O)N1[C@H](C#N)[C@H](c2ccc(C#CC3CCCCC3)cc2)[C@H]1CO	14.2 µM
O=C(C[C@@H]1CC[C@@H]2[C@H](COC[C@H](O)CN2C(=O)Nc2ccc(Cl)c(Cl)c2)O1)NCc1ccc(Cl)c(Cl)c1	1.14 µM
C[C@@H]1CN([C@@H](C)CO)C(=O)c2cccc(NC(=O)Nc3ccc(C(F)(F)F)cc3)c2O[C@@H]1CN(C)Cc1ccc(Oc2ccccc2)cc1	< 0.5 µM
C[C@@H]1CN([C@@H](C)CO)C(=O)c2cc(NC(=O)Nc3ccc(C(F)(F)F)cc3)ccc2O[C@@H]1CN(C)CC1CCCCC1	9.84 µM
CNC(=O)C[C@H]1CC[C@@H]2[C@H](COC[C@H](O)CN2C(=O)Nc2ccc(Cl)c(Cl)c2)O1	4.12 µM
CO[C@H](CN(C)S(=O)(=O)c1cn(C)cn1)[C@H](C)CN(C(=O)Nc1ccc(C(F)(F)F)cc1)[C@@H](C)CO	7.66 µM
COc1ccccc1CNC(=O)C[C@@H]1CC[C@@H]2[C@H](COC[C@H](O)CN2C(=O)Nc2ccc(C(F)(F)F)cc2)O1	0.614 µM
C[C@@H]1CN([C@@H](C)CO)C(=O)Cc2cc(N(C)C)ccc2O[C@H]1CN(C)Cc1ccc(Oc2ccccc2)cc1	19.1 µM
CCCC(=O)Nc1ccc2c(c1)C(=O)N(C)[C@@H]1CC[C@@H](CC(=O)OC)O[C@@H]1CO2	> 60 µM (inactive)
C[C@H](NC(=O)C[C@H]1CC[C@H]2[C@@H](COC[C@@H](O)CN2C(=O)Nc2cc(Cl)cc(Cl)c2)O1)c1ccccc1	17.9 µM
O=C(C[C@@H]1CC[C@@H]2[C@H](COC[C@H](O)CN2C(=O)Nc2ccc(C(F)(F)F)cc2)O1)NCC1CCCCC1	1.09 µM
COc1ccccc1S(=O)(=O)N(C)C[C@@H]1OCc2ccccc2-c2c(n(C)c3ccccc23)C(=O)N([C@H](C)CO)C[C@@H]1C	> 60 µM (inactive)
COc1ccccc1CNC(=O)C[C@@H]1CC[C@H]2[C@@H](COC[C@@H](O)CN2C(=O)Nc2ccc(C(F)(F)F)cc2)O1	2.14 µM
C[C@H](NC(=O)C[C@H]1CC[C@@H]2[C@H](COC[C@H](O)CN2C(=O)Nc2cc(Cl)cc(Cl)c2)O1)c1ccccc1	11.5 µM
C[C@H](CO)N1C[C@H](C)[C@H](CN(C)C(=O)Nc2ccc(F)cc2)Oc2c(NC(=O)Nc3ccc(C(F)(F)F)cc3)cccc2C1=O	33.7 µM

— PubChem BioAssay AID1224921 (Broad Institute, 2016)
